Test results: US10260039B2, “Microgels and microtissues for use in tissue engineering” (Massachusetts Institute of Technology, priority 2011, dated 2019)

How the values were obtained:
[1] = tested on: 3D engineered liver tissues; experiment: hepatic function of 3D engineered liver tissues (albumin secretion); format: cell-based, human
From the text: FIG. 10. A) Albumin secretion as a measure of hepatic phenotype, elevated in the presence of fibroblasts and RGDS peptide. B) Luminex bead measurements of human drug metabolism enzyme genes, showing upregulation of the genes in 3D as opposed to 2D, in various phases of drug metabolism.
More recently, it has been possible to extend the function of 3D engineered liver tissues even further, by addition of a micropatterning step pre-encapsulation (FIG. 11).

encapsulated tumor cells = experiment: 3D proliferation of encapsulated tumor cells in microtissues (large-particle flow analyzer); format: cell-based
From the text: FIG. 16. Microtissue proliferation modulated by (a) incorporated extracellular matrix molecules, or (b) culture in soluble growth factors.
FIG. 17. Differences in tumor cell responses to small molecules in 2D vs. 3D culture. (a) Comparison of proliferation rates on 2D-microplate and 3D-microtissue formats relative to untreated controls. (b) Growth curve over time of tumor cells in 2D measured by microplate fluorescence, and (c) Growth curve over time of tumor cells in 3D measured by gel dissolution and DNA quantitation.
The in vitro 3D tumor model platform combines the split-injection encapsulation chip described in detail above with a large-particle flow analyzer and sorter (COPAS Biosort by Union Biometrica). Cells are first encapsulated within microtissues (˜5000/min) that can contain tumor cells, stromal cells, and various entrapped ECM. These microtissues are then further enriched using the flow sorter that measures the fluorescence intensity each microtissue, correlating with the density of zs-green tumor cells in each microtissue. (FIG. 15a), and can sort the microtissues (˜25 selected/min) into low, medium, and high homotypic cell density bins (FIG. 15b). […] Selected populations of microtissues are then exposed to stimuli in culture such as growth factors and inhibitors, and their proliferation over days is detected on a population level (FIG. 15b).

## RGDS: adhesive peptide (SEQ ID NO: 1), acrylate-PEG-RGDS incorporated in hydrogel; ligates α5β1 integrin (not fully specified; acrylate-PEG conjugate in hydrogel)
[1]; 3D culture, ligation of α5β1 integrin via RGDS (FIG. 10A)
  hepatic functions: further improved hepatic functions
[1]; in the presence of fibroblasts and RGDS peptide (FIG. 10A)
  albumin secretion as a measure of hepatic phenotype: elevated

## fibronectin
Encapsulated tumor cells; extracellular matrix protein incorporated in microtissues (FIG. 16)
  3D proliferation (growth) of encapsulated tumor cells: promoted growth

## TGF-β
Encapsulated tumor cells; exogenous growth factor in culture, 3D microtissues (FIG. 16)
  slowing of 3D proliferation of encapsulated tumor cells: ~80%
